Assay results taken from patent US10940139B2, “Compounds that interact with the Ras superfamily for the treatment of cancers, inflammatory diseases, rasopathies, and fibrotic disease” (Shy Therapeutics LLC, priority 2017, dated 2021).

Target: KRas G12D/Q61H double mutant (Homo sapiens (Human), UniProt P01116, G12D/Q61H)
Experiment: Ras GTP binding domain inhibition assay (labeled GTP)
Conditions: 20 μM compound; read-out: % Inhibition at 20 μM KRas G12D Q61H
Protocol: Buffer-I: • 50 mM Tris, pH 7.5 • 150 mM NaCl (optional) • 1 mM MgCl2 • 1 mM DTT. • KRas G12D mutant protein was expressed as a His-tagged protein. Purified His-KRas G12D protein was diluted in buffer-I to a final concentration of 3-10 μg/ml. • 200 μl of the diluted His-KRas G12D protein was added to a nickel coated 96 well plate and incubated overnight at 4° C. • The next day, wells were washed 3× in 200 μl of Buffer-I. • Then 200 μl of Buffer-I were added to each well in the presence of 1% DMSO. • Tested compounds were added to the protein-coated wells at a concentration of 20 μM, and incubated for 3 hours at room temperature. While performing IC50 measurements a serial dilution of all tested concentrations was prepared.
Then 22 μl of Cy3-GTP or Cy5-GTP was added to each well. The labeled GTP was incubated for 45 min. at room temperature. • Following GTP incubation, wells were washed 3× in Buffer-I, and 200 μl of Buffer-I were added to each well. • Following washes, the amount of bound labeled-GTP was measured with an Eppendorf AF2200 plate reader.
By substituting KRas G12D mutant protein with KRas G12C mutant, KRas wild type, KRas Q61H mutant, KRas G12D/Q61H double mutant or KRas G12C/Q61H double mutant under the assay conditions described above, KRas G12C mutant KRas wild type, KRas Q61H mutant, KRas G12D/Q61H double mutant and KRas G12C/Q61H double mutant inhibition, respectively, were each determined.

Sequence of KRas G12D/Q61H double mutant (P01116-2 other isoform, or with tags, fused parts or gaps G12D/Q61H): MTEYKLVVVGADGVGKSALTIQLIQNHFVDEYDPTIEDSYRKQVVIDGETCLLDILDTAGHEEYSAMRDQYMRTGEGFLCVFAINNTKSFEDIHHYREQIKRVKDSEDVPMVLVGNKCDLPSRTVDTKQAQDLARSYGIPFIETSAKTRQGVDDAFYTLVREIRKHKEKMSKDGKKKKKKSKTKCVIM

Cc1nc(C2CCCN2c2nccc(C(F)(F)F)n2)no1 (stereo not drawn)
inhibition at 20 µM: 25 to 50%

O=C(c1cnc(-c2ccccc2)s1)N1CCC(c2ccccc2)CC1
inhibition at 20 µM: 25 to 50%

COc1ccccc1OCc1ccc(C(=O)N2CCCc3c(F)cc(F)cc32)o1
inhibition at 20 µM: 25 to 50%

CCNC(=O)CNc1nc(-c2ccccn2)nc(C)c1C
inhibition at 20 µM: 25 to 50%

Cc1nn(C)c(C)c1CC(=O)Nc1nnc(-c2ccccn2)[nH]1
inhibition at 20 µM: 25 to 50%

O=C(c1cc(-c2ccccc2)nc2ccccc12)N1N=CCC1(O)C(F)(F)F (stereo not drawn)
inhibition at 20 µM: 25 to 50%

Cc1cc(N2CCN(c3cccc(C(F)(F)F)c3)CC2)n2ncnc2n1
inhibition at 20 µM: 25 to 50%

Cn1ccnc1COc1ccc(C(=O)Nc2nnc(-c3ccccn3)[nH]2)cc1
inhibition at 20 µM: 25 to 50%

CCOC(=O)C1CCCC1N(Cc1cccc([N+](=O)[O-])c1)C1CC1 (stereo not drawn)
inhibition at 20 µM: 25 to 50%

CN(C)c1ccccc1NCc1cc(Br)c2c(c1)OCCCO2
inhibition at 20 µM: 25 to 50%

COc1ccc(CCC(=O)Nc2nnc(-c3ccccn3)[nH]2)cc1OC
inhibition at 20 µM: 25 to 50%

CCn1c(SCc2csc(-c3cccc(OC)c3OC)n2)nc2cc(S(N)(=O)=O)ccc21
inhibition at 20 µM: 25 to 50%

O=C(NCc1ccccn1)c1ccn(-c2cccc(Cl)c2)n1
inhibition at 20 µM: 25 to 50%

O=C(Nc1nc(-c2ccccn2)cs1)c1cccc(-n2cnnn2)c1
inhibition at 20 µM: 25 to 50%

COc1ccc(CN(Cc2cccs2)C(=O)c2oc3ccccc3c2C)cc1OC
inhibition at 20 µM: 25 to 50%

COc1ccnc(CN2CCOC(C)(c3ccccc3)C2)c1OC (stereo not drawn)
inhibition at 20 µM: 25 to 50%

Cc1ccc(S(=O)(=O)NC(c2ccccc2)c2ccccn2)c(Cl)c1 (stereo not drawn)
inhibition at 20 µM: 25 to 50%

c1ccc(OCc2nc(CNCCn3cccn3)cs2)cc1
inhibition at 20 µM: 25 to 50%

Cc1cc(C2CCCN2c2nccc(C(F)(F)F)n2)no1 (stereo not drawn)
inhibition at 20 µM: 25 to 50%

Cc1cc(NCCNC(=O)Cc2ccccc2)nc(-c2ccccn2)n1
inhibition at 20 µM: 25 to 50%

CC(C(N)=O)N1CCOC(c2nc(-c3ccccc3)cs2)C1 (stereo not drawn)
inhibition at 20 µM: 25 to 50%

c1ccc(Oc2ccccc2NCc2nc(C3CC3)no2)cc1
inhibition at 20 µM: 25 to 50%

CCOC(=O)c1sc(N(C2CC2)S(=O)(=O)c2cc(F)ccc2C)nc1C
inhibition at 20 µM: 25 to 50%

CC1=C(c2ccccc2)C2C(=O)NC(c3cnccn3)=NC2S1 (stereo not drawn)
inhibition at 20 µM: 25 to 50%

Cc1nc(CN(Cc2ccccc2)Cc2ccccc2)no1
inhibition at 20 µM: 25 to 50%

Cc1ccc(-c2c(C)sc3nc(-c4cnccn4)[nH]c(=O)c23)cc1
inhibition at 20 µM: 25 to 50%

CCN1CCN(c2nc(-c3ccccn3)nc3sc(-c4ccccc4)cc23)CC1
inhibition at 20 µM: 25 to 50%

CN(C)S(=O)(=O)c1ccc(N2CCCC2)c(C(=O)NCCCN2CCCC2=O)c1
inhibition at 20 µM: 25 to 50%

CCN(CC)S(=O)(=O)c1ccc(N2CCCC2)c(C(=O)NCCCn2cnc3ccccc32)c1
inhibition at 20 µM: 25 to 50%

OCC1CCCN(c2nc(-c3ccccn3)nc3scc(-c4ccccc4)c23)C1 (stereo not drawn)
inhibition at 20 µM: 25 to 50%

O=S(=O)(NC(c1ccccc1)c1ccccn1)c1cc(C(F)(F)F)ccc1Cl (stereo not drawn)
inhibition at 20 µM: 25 to 50%

Cc1c(C(=O)Nc2nnc(-c3ccccn3)[nH]2)cnn1-c1ccc(C(F)(F)F)cn1
inhibition at 20 µM: 25 to 50%

CC(OCC1CC1)C(=O)Nc1nnc(-c2ccccn2)[nH]1 (stereo not drawn)
inhibition at 20 µM: 25 to 50%

C=CCc1ccc(OCCn2c(CN3CCOCC3)nc3ccccc32)c(OC)c1
inhibition at 20 µM: 25 to 50%

Cc1nc(-c2ccccn2)nc(NCCS(C)(=O)=O)c1C
inhibition at 20 µM: 25 to 50%

Cc1ccc(C)c(OCc2nnc(SCC(C)C(=O)c3ccc(F)c(F)c3)o2)c1 (stereo not drawn)
inhibition at 20 µM: 25 to 50%

CC(C)Cn1cnnc1C1CCCN1c1ccc(C#N)c(C(F)(F)F)c1 (stereo not drawn)
inhibition at 20 µM: 25 to 50%

Cc1sc(NC2CCCCC2)nc1-c1ccc(F)c(F)c1
inhibition at 20 µM: 25 to 50%

COCc1nc(C)c(C(=O)Nc2nnc(-c3ccccn3)[nH]2)s1
inhibition at 20 µM: 25 to 50%

CCOC(=O)c1ccc(C(=O)NCCc2ccc(C(F)(F)F)cc2)nc1C
inhibition at 20 µM: 25 to 50%

N#Cc1ccc(OCCSc2nnc(COc3ccc(F)cc3)o2)cc1
inhibition at 20 µM: 25 to 50%

CN1CCN(Cc2nnc(-c3ccccc3Cl)o2)c2ccc(F)cc21
inhibition at 20 µM: 25 to 50%

COc1cc(C(=O)Nc2nnc(-c3ccccn3)[nH]2)ccc1OCC(N)=O
inhibition at 20 µM: 25 to 50%

Cc1n[nH]c(C2CN(C(C)c3ccncc3)CCO2)n1 (stereo not drawn)
inhibition at 20 µM: 25 to 50%

COC(=O)c1cccc(NCc2nc(CC(C)C)no2)c1
inhibition at 20 µM: 25 to 50%

CN(Cc1ccc(C(=O)NCC(F)(F)F)cc1)Cc1ccc([N+](=O)[O-])cc1
inhibition at 20 µM: 25 to 50%

Cc1[nH]c(-c2ccccn2)nc(=O)c1C
inhibition at 20 µM: 25 to 50%

O=C(c1cccc(S(=O)(=O)N2CCOCC2)c1)N1N=C(c2ccccc2)CC1(O)C(F)(F)F (stereo not drawn)
inhibition at 20 µM: 25 to 50%

O=C(Cc1ccc(OC(F)(F)F)cc1)Nc1nnc(-c2ccccn2)[nH]1
inhibition at 20 µM: 25 to 50%

Cc1ccc2cccc(OS(=O)(=O)N3CCOCC3)c2n1
inhibition at 20 µM: 25 to 50%

COC(=O)CCN(Cc1ccc(Oc2ccc(OC)cc2)cc1)C1CCOCC1
inhibition at 20 µM: 1 to 25%

O=c1[nH]c(-c2cnc(Oc3ccccc3)cn2)nc2ccsc12
inhibition at 20 µM: 1 to 25%

Fc1ccc(OCCSc2nnc(C3COc4ccccc4O3)o2)cc1 (stereo not drawn)
inhibition at 20 µM: 1 to 25%

O=c1[nH]c(-c2cnccn2)nc2ccccc12
inhibition at 20 µM: 1 to 25%

CN(Cc1nc2ccccc2n1C)C(=O)c1cccc(Cl)n1
inhibition at 20 µM: 1 to 25%

O=C(Nc1ccc(N2CCOCC2)cc1)c1ccccc1OCCOc1ccccc1
inhibition at 20 µM: 1 to 25%

N#Cc1ccc(N2CCCC2c2ccco2)cc1C(F)(F)F (stereo not drawn)
inhibition at 20 µM: 1 to 25%

Cc1nc(CC(C)C)sc1C(=O)Nc1nnc(-c2ccccn2)[nH]1
inhibition at 20 µM: 1 to 25%

OCCCSCCNc1nc(-c2ccccn2)nc2c1CCC2
inhibition at 20 µM: 1 to 25%

COc1ccc(OCCn2c(CN3CCCCC3)nc3ccccc32)cc1
inhibition at 20 µM: 1 to 25%

Cn1nc(-c2ccncc2)cc1NC(=O)c1cccnc1
inhibition at 20 µM: 1 to 25%

CC(C)N1C(=O)CC(Nc2cc(C(F)(F)F)nc(-c3ccccn3)n2)C1=O (stereo not drawn)
inhibition at 20 µM: 1 to 25%

O=C(c1csc(-c2ncccn2)n1)N1CCC(c2ccc(O)cc2)CC1
inhibition at 20 µM: 1 to 25%

CN(C(=O)c1ccc(COc2ccc(Br)cc2)o1)C1CCS(=O)(=O)C1 (stereo not drawn)
inhibition at 20 µM: 1 to 25%

Cc1ccc(C(C)C)cc1OS(=O)(=O)N1CCc2ccccc2C1
inhibition at 20 µM: 1 to 25%

Cc1cccc(OCCNC(=O)c2cc(S(=O)(=O)N3CCOCC3)ccc2N2CCOCC2)c1
inhibition at 20 µM: 1 to 25%

CCN(CC)S(=O)(=O)c1ccc(N2CCOCC2)c(C(=O)NCCCn2cnc3ccccc32)c1
inhibition at 20 µM: 1 to 25%

COc1ccc(-c2nc(C(=O)NCc3ccccn3)cs2)cc1
inhibition at 20 µM: 1 to 25%

Cc1ccc(NC(=O)c2sc3nc(-c4ncccn4)[nH]c(=O)c3c2C)c(C)c1
inhibition at 20 µM: 1 to 25%

Cc1ccc(OCc2nnc(SCC3CCCCO3)o2)cc1 (stereo not drawn)
inhibition at 20 µM: 1 to 25%

CN(Cc1ccc(OCc2ccccn2)cc1)Cc1ccccc1OC(F)(F)F
inhibition at 20 µM: 1 to 25%

CN(CC(=O)N1CCOCC1)C(=O)c1ccc(COc2ccc(F)cc2)o1
inhibition at 20 µM: 1 to 25%

COC(=O)c1ccc(C(=O)NCC(c2ccccc2)N2CCOCC2)nc1 (stereo not drawn)
inhibition at 20 µM: 1 to 25%

Cc1ccccc1CC(=O)N(CC(F)(F)F)C1CCCOC1 (stereo not drawn)
inhibition at 20 µM: 1 to 25%

C=CCn1c(SCc2csc(-c3cccc(OC)c3OC)n2)nc2ccccc21
inhibition at 20 µM: 1 to 25%

O=C(Nc1nnc(-c2ccccn2)[nH]1)c1cccc(Nc2ncccn2)c1
inhibition at 20 µM: 1 to 25%

COc1ccccc1CN(Cc1cccs1)C(=O)c1ccc(S(=O)(=O)N2CCOCC2)cc1
inhibition at 20 µM: 1 to 25%

c1cc2c(cc1-c1csc(C3CC3)n1)CCC2
inhibition at 20 µM: 1 to 25%

O=C1NCCCC1Nc1cc(C(F)(F)F)nc(-c2ccccn2)n1 (stereo not drawn)
inhibition at 20 µM: 1 to 25%

Cc1ccccc1OCCn1c(CN2CCOCC2)nc2ccccc21
inhibition at 20 µM: 1 to 25%

CCN(C(=O)c1ccc(COc2ccccc2F)o1)c1ccccc1C
inhibition at 20 µM: 1 to 25%

COCc1ccc(C(=O)N(Cc2cccs2)Cc2ccccc2OC)cc1
inhibition at 20 µM: 1 to 25%

O=C(c1ccc(COc2ccccc2F)o1)N1CCOc2ccccc21
inhibition at 20 µM: 1 to 25%

CC(=O)Nc1cccc(C(C)N(Cc2ccccc2)Cc2nc(-c3ccc(Cl)cc3)no2)c1 (stereo not drawn)
inhibition at 20 µM: 1 to 25%

CCOCCCNC(=O)c1cc(S(=O)(=O)N(CC)CC)ccc1NCCOC
inhibition at 20 µM: 1 to 25%

CCc1cc(NC(C)C(=O)N2CCOCC2)nc(-c2ccccn2)n1 (stereo not drawn)
inhibition at 20 µM: 1 to 25%

C=CCNC(=O)CN1CCOC(c2nc(-c3ccccc3)cs2)C1 (stereo not drawn)
inhibition at 20 µM: 1 to 25%

Cc1nc(-c2ccccn2)nc(NC(C)CO)c1C (stereo not drawn)
inhibition at 20 µM: 1 to 25%

COc1ccccc1CC(=O)N(CC(F)(F)F)C1CCCOC1 (stereo not drawn)
inhibition at 20 µM: 1 to 25%

CN(C(=O)c1ccc(COc2ccccc2)o1)C1CCCCC1
inhibition at 20 µM: 1 to 25%

CC(C)CN1CC(C(=O)Nc2nc(-c3ccccn3)cs2)CC1=O (stereo not drawn)
inhibition at 20 µM: 1 to 25%

COc1ccccc1CN(Cc1cccs1)C(=O)c1ccc(-c2nc(C)no2)cc1
inhibition at 20 µM: 1 to 25%

COc1ccccc1-c1nnc(CNc2ccc(Cl)cc2Cl)o1
inhibition at 20 µM: 1 to 25%

FC(F)(F)c1ccnc(N2CCCC2c2cccs2)n1 (stereo not drawn)
inhibition at 20 µM: 1 to 25%

CC(C)Cc1cc(C(=O)Nc2cc(-c3ccncc3)nn2C)[nH]n1
inhibition at 20 µM: 1 to 25%

O=C(NCCc1cccs1)c1cc(S(=O)(=O)N2CCCCC2)ccc1N1CCOCC1
inhibition at 20 µM: 1 to 25%
